Measurements as given in ChEMBL document CHEMBL5360532, “Current scenario of quinolone hybrids with potential antibacterial activity against ESKAPE pathogens” (Eur J Med Chem, 2023).
pIC50: −log10 of the molar value. Converted amounts (≈) assume the structure as drawn.

Tests used:
Staphylococcus aureus [1] = experiment: Antibacterial activity against Staphylococcus aureus AUMC B-73 assessed as bacterial growth inhibition by agar cup diffusion method; format: functional
Staphylococcus aureus [2] = experiment: Antibacterial activity against Staphylococcus aureus assessed as bacterial growth inhibition by agar cup diffusion method; format: functional
Staphylococcus aureus [3] = experiment: Potency index, ratio of ciprofloxacin MIC to test compound MIC for antimicrobial activity against Staphylococcus aureus MTCC 424 assessed as bacterial growth inhibition measured after 24 hrs by microdilution assay; format: functional
Escherichia coli [4] = experiment: Antibacterial activity against Escherichia coli MTCC 1687 assessed as bacterial growth inhibition measured after 24 hrs by microdilution assay; format: functional
Staphylococcus aureus [5] = experiment: Potency index, ratio of ciprofloxacin MIC to test compound MIC for antimicrobial activity against Staphylococcus aureus MLS16 MTCC 2940 assessed as bacterial growth inhibition measured after 24 hrs by microdilution assay; format: functional
Staphylococcus aureus [6] = experiment: Antibacterial activity against Staphylococcus aureus MTCC 737 assessed as bacterial growth inhibition measured after 24 hrs by microdilution assay; format: functional
Pseudomonas aeruginosa [7] = experiment: Antibacterial activity against Pseudomonas aeruginosa MTCC 424 assessed as bacterial growth inhibition measured after 24 hrs by microdilution assay; format: functional
Escherichia coli [8] = experiment: Potency index, ratio of ciprofloxacin MIC to test compound MIC for antimicrobial activity against Escherichia coli MTCC 1687 assessed as bacterial growth inhibition measured after 24 hrs by microdilution assay; format: functional
Staphylococcus aureus [9] = experiment: Antibacterial activity against Staphylococcus aureus MLS16 MTCC 2940 assessed as bacterial growth inhibition measured after 24 hrs by microdilution assay; format: functional
Escherichia coli [10] = experiment: Antibacterial activity against Escherichia coli assessed as bacterial growth inhibition by agar well diffusion assay; format: functional, organism-based
[11] = test system: Mycobacterium tuberculosis; experiment: Antimycobacterial activity against extensive drug Mycobacterium tuberculosis assessed as bacterial growth inhibition by LJ slant assay; format: functional
Staphylococcus aureus [12] = experiment: Antibacterial activity against methicillin resistant Staphylococcus aureus ATCC 12493 assessed as bacterial growth inhibition by broth microdilution assay; format: functional
Staphylococcus aureus [13] = experiment: Antibacterial activity against Staphylococcus aureus assessed as zone of inhibition at 50 mg/ml cup plate assay; format: functional; conditions: read-out: IZ
[14] = test system: Mycobacterium tuberculosis; experiment: Antimycobacterial activity against Mycobacterium tuberculosis H37Rv assessed as bacterial growth inhibition by LJ slant assay; format: functional
Staphylococcus aureus [15] = experiment: Antibacterial activity against Staphylococcus aureus assessed as bacterial growth inhibition by agar cup diffusion assay; format: functional
Acinetobacter baumannii [16] = experiment: Antibacterial activity against Acinetobacter baumannii assessed as bacterial growth inhibition by broth microdilution assay; format: functional
Streptococcus pneumoniae = experiment: Antibacterial activity against Streptococcus pneumoniae assessed as zone of inhibition at 50 mg/ml by agar well diffusion assay; format: functional; conditions: read-out: IZ
Staphylococcus aureus [17] = experiment: Antibacterial activity against Staphylococcus aureus assessed as zone of inhibition at 250 ug/ml by agar well diffusion assay; format: functional; conditions: read-out: IZ
Klebsiella pneumoniae [18] = experiment: Antibacterial activity against Klebsiella pneumoniae assessed as bacterial growth inhibition measured after 20 hrs by serial dilution method; format: functional
Pseudomonas aeruginosa [19] = experiment: Antibacterial activity against Pseudomonas aeruginosa assessed as bacterial growth inhibition by agar well diffusion assay; format: functional, organism-based
Klebsiella pneumoniae [20] = experiment: Antibacterial activity against Klebsiella pneumoniae AUMC B-77 assessed as bacterial growth inhibition by agar cup diffusion method; format: functional
Escherichia coli [21] = experiment: Antibacterial activity against Escherichia coli ATCC35218 assessed as bacterial growth inhibition measured after 18 to 24 hrs inhibition by broth microdilution assay; format: functional; conditions: time 18-24 hrs
Klebsiella pneumoniae [22] = experiment: Antibacterial activity against Klebsiella pneumoniae assessed as bacterial growth inhibition by agar cup diffusion assay; format: functional
Staphylococcus aureus [23] = experiment: Antibacterial activity against Staphylococcus aureus assessed as zone of inhibition at 50 mg/ml by agar well diffusion assay; format: functional; conditions: read-out: IZ
Escherichia coli [24] = experiment: Antibacterial activity against Escherichia coli ATCC 25922 assessed as zone of inhibition at 50 mg/ml by agar diffusion assay; format: functional; conditions: read-out: IZ
Enterococcus faecalis [25] = experiment: Antibacterial activity against Enterococcus faecalis assessed as zone of inhibition at 50 mg/ml by agar well diffusion assay; format: functional; conditions: read-out: IZ
Pseudomonas aeruginosa [26] = experiment: Antibacterial activity against Pseudomonas aeruginosa […] assessed as bacterial growth inhibition measured after 18 to 24 hrs inhibition by broth microdilution assay; format: functional; conditions: time 18-24 hrs
Pseudomonas aeruginosa [27] = experiment: Antibacterial activity against Pseudomonas aeruginosa ATCC43288 assessed as bacterial growth inhibition measured after 18 to 24 hrs inhibition by broth microdilution assay; format: functional; conditions: time 18-24 hrs
Escherichia coli [28] = experiment: Antibacterial activity against Escherichia coli assessed as bacterial growth inhibition measured after 20 hrs by serial dilution method; format: functional
Escherichia coli [29] = experiment: Antibacterial activity against fluoroquinolone Escherichia coli assessed as bacterial growth inhibition by broth microdilution assay; format: functional
Escherichia coli [30] = experiment: Antibacterial activity against Escherichia coli assessed as bacterial growth inhibition by broth microdilution assay; format: functional
Escherichia coli [31] = experiment: Antibacterial activity against Escherichia coli assessed as zone of inhibition at 50 mg/ml cup plate assay; format: functional; conditions: read-out: IZ
Pseudomonas aeruginosa [32] = experiment: Antibacterial activity against Pseudomonas aeruginosa assessed as zone of inhibition at 250 ug/ml by agar well diffusion assay; format: functional; conditions: read-out: IZ
Pseudomonas aeruginosa [33] = experiment: Antibacterial activity against Pseudomonas aeruginosa assessed as bacterial growth inhibition by agar cup diffusion assay; format: functional
Staphylococcus aureus [34] = experiment: Antibacterial activity against methicillin resistant Staphylococcus aureus assessed as bacterial growth inhibition by microdilution assay; format: functional
Escherichia coli [35] = experiment: Antibacterial activity against Escherichia coli assessed as bacterial growth inhibition by agar cup diffusion assay; format: functional
[36] = test system: Mycobacterium tuberculosis; experiment: Antimycobacterial activity against multidrug Mycobacterium tuberculosis assessed as bacterial growth inhibition by LJ slant assay; format: functional
Staphylococcus aureus [37] = experiment: Antibacterial activity against methicillin resistant Staphylococcus aureus assessed as bacterial growth inhibition by agar cup diffusion assay; format: functional
Pseudomonas aeruginosa [38] = experiment: Antibacterial activity against Pseudomonas aeruginosa assessed as bacterial growth inhibition measured after 20 hrs by serial dilution method; format: functional
Staphylococcus aureus [39] = experiment: Antibacterial activity Staphylococcus aureus ATCC 25923 assessed as bacterial growth inhibition by broth microdilution assay; format: functional
Staphylococcus aureus [40] = experiment: Antibacterial activity against Staphylococcus aureus assessed as bacterial growth inhibition by agar well diffusion assay; format: functional, organism-based
Enterococcus faecalis [41] = experiment: Antibacterial activity against Enterococcus faecalis assessed as bacterial growth inhibition by broth microdilution assay; format: functional
Staphylococcus aureus [42] = experiment: Antibacterial activity against Staphylococcus aureus assessed as bacterial growth inhibition measured after 24 hrs by agar cup diffusion assay; format: functional
Klebsiella pneumoniae [43] = experiment: Antibacterial activity against Klebsiella pneumoniae assessed as bacterial growth inhibition by broth microdilution assay; format: functional
Staphylococcus aureus [44] = experiment: Antibacterial activity against Staphylococcus aureus ATCC 25923 assessed as bacterial growth inhibition measured after 16 hrs by broth microdilution assay; format: functional
Klebsiella pneumoniae [45] = experiment: Antibacterial activity against Klebsiella pneumoniae assessed as zone of inhibition at 250 ug/ml by agar well diffusion assay; format: functional; conditions: read-out: IZ
Acinetobacter baumannii [46] = experiment: Antibacterial activity against Acinetobacter baumannii assessed as bacterial growth inhibition by serial dilution method; format: functional
Staphylococcus aureus [47] = experiment: Antibacterial activity against Staphylococcus aureus assessed as bacterial growth inhibition measured after 20 hrs by serial dilution method; format: functional
Klebsiella pneumoniae [48] = experiment: Antibacterial activity against Klebsiella pneumoniae assessed as bacterial growth inhibition by serial dilution method; format: functional
Escherichia coli [49] = experiment: Antibacterial activity against Escherichia coli assessed as zone of inhibition at 50 mg/ml by agar well diffusion assay; format: functional; conditions: read-out: IZ
Escherichia coli [50] = experiment: Antibacterial activity against Escherichia coli assessed as bacterial growth inhibition by serial dilution method; format: functional
[51] = test system: Mycobacterium tuberculosis; experiment: Antimycobacterial activity against Mycobacterium tuberculosis H37Rv assessed as bacterial growth inhibition; format: functional

## C/C(=N\O)c1ccc(NC(=O)C(C)N2CCN(c3cc4c(cc3F)c(=O)c(C(=O)O)cn4C3CC3)CC2)cc1 (centres undefined)
Staphylococcus aureus [1]
  MIC: 0.2 µg/mL (≈ 0.373 µM)
Staphylococcus aureus [2]
  MIC: 0.38 µg/mL (≈ 0.71 µM)

## COc1ccc(-c2cc(-c3c(O)c4ccccc4[nH]c3=O)nc(N)c2C#N)cc1
Staphylococcus aureus [3]
  Ratio: 2
Escherichia coli [4]
  MIC: 2.34 µg/mL (≈ 6.09 µM)
Staphylococcus aureus [5]
  Ratio: 2
Staphylococcus aureus [6]
  MIC: 2.34 µg/mL (≈ 6.09 µM)
Pseudomonas aeruginosa [7]
  MIC: 2.34 µg/mL (≈ 6.09 µM)
Escherichia coli [8]
  Ratio: 2
Staphylococcus aureus [9]
  MIC: 2.34 µg/mL (≈ 6.09 µM)

## O=C(O)c1cn(C2CC2)c2cc(N3CCNCC3)c(F)cc2c1=O [CIPROFLOXACIN]
Escherichia coli [10]
  pIC50: 4.76
  MIC: 1.06 µg/mL (≈ 3.2 µM)
[11]
  MIC: ≥ 2 µg/mL
Staphylococcus aureus [12]
  MIC: 0.49 µg/mL (≈ 1.48 µM)
Staphylococcus aureus [13]
  zone of inhibition at 50000 µg/mL: 11 mm
[14]
  MIC: ≥ 2 µg/mL
Staphylococcus aureus [15]
  MIC: 0.5 µg/mL (≈ 1.51 µM)
Acinetobacter baumannii [16]
  MIC: 0.004 µg/mL (≈ 0.0121 µM)
Streptococcus pneumoniae
  zone of inhibition at 50000 µg/mL: 30 mm
Staphylococcus aureus [17]
  zone of inhibition at 250 µg/mL: 17 mm
Klebsiella pneumoniae [18]
  MIC: 0.24 µg/mL (≈ 0.724 µM)
Pseudomonas aeruginosa [19]
  pIC50: 4.76
  MIC: 1.06 µg/mL (≈ 3.2 µM)
Staphylococcus aureus [1]
  MIC: 1.6 µg/mL (≈ 4.83 µM)
Klebsiella pneumoniae [20]
  MIC: 3.6 µg/mL (≈ 10.9 µM)
Escherichia coli [21]
  MIC: ≤ 0.03 µg/mL
Klebsiella pneumoniae [22]
  MIC: 1.9 µg/mL (≈ 5.73 µM)
Staphylococcus aureus [23]
  zone of inhibition at 50000 µg/mL: 33 mm
Escherichia coli [24]
  zone of inhibition at 50000 µg/mL: 26.3 mm
Enterococcus faecalis [25]
  zone of inhibition at 50000 µg/mL: 30 mm
Pseudomonas aeruginosa [26]
  MIC: ≤ 0.03 µg/mL
Pseudomonas aeruginosa [27]
  MIC: ≤ 0.03 µg/mL
Escherichia coli [28]
  MIC: 0.24 µg/mL (≈ 0.724 µM)
Escherichia coli [29]
  MIC: 0.72 µg/mL (≈ 2.17 µM)
Escherichia coli [30]
  MIC: 0.195 µg/mL (≈ 0.589 µM)
Escherichia coli [31]
  zone of inhibition at 50000 µg/mL: 13 mm
Pseudomonas aeruginosa [32]
  zone of inhibition at 250 µg/mL: 17 mm
Pseudomonas aeruginosa [33]
  MIC: 8.62 µg/mL (≈ 26 µM)
Staphylococcus aureus [34]
  MIC: 0.5 µg/mL
Escherichia coli [35]
  MIC: 1.9 µg/mL (≈ 5.73 µM)
[36]
  MIC: ≥ 2 µg/mL
Escherichia coli [4]
  MIC: 4.68 µg/mL (≈ 14.1 µM)
Staphylococcus aureus [37]
  MIC: 5.49 µg/mL (≈ 16.6 µM)
Staphylococcus aureus [6]
  MIC: 4.68 µg/mL (≈ 14.1 µM)
Pseudomonas aeruginosa [38]
  MIC: 0.24 µg/mL (≈ 0.724 µM)
Staphylococcus aureus [39]
  MIC: 4 µg/mL (≈ 12.1 µM)
Staphylococcus aureus [40]
  pIC50: 4.76
  MIC: 1.06 µg/mL (≈ 3.2 µM)
Enterococcus faecalis [41]
  MIC: 0.72 µg/mL (≈ 2.17 µM)
Staphylococcus aureus [42]
  MIC: 3.25 µg/mL (≈ 9.81 µM)
Klebsiella pneumoniae [43]
  MIC: 0.004 µg/mL (≈ 0.0121 µM)
Staphylococcus aureus [44]
  MIC: 0.78 µg/mL (≈ 2.35 µM)
Klebsiella pneumoniae [45]
  zone of inhibition at 250 µg/mL: 17 mm
Acinetobacter baumannii [46]
  MIC: 0.312 µg/mL (≈ 0.942 µM)
Staphylococcus aureus [47]
  MIC: 0.24 µg/mL (≈ 0.724 µM)
Klebsiella pneumoniae [48]
  MIC: 0.312 µg/mL (≈ 0.942 µM)
Staphylococcus aureus [9]
  MIC: 4.68 µg/mL (≈ 14.1 µM)
Escherichia coli [49]
  zone of inhibition at 50000 µg/mL: 33 mm
Escherichia coli [50]
  MIC: 0.312 µg/mL (≈ 0.942 µM)
[51]
  MIC: 11.2 µg/mL (≈ 34 µM)
